Patent publication US20240246916A1, “7-NITRO-8-HYDROXYQUINOLINE DERIVATIVES, PREPARATION METHOD THEREFORE AND MEDICAL USE THEREOF” (Jiangsu Yahong Meditech Co., Ltd., priority 2021, published 2024)
In brackets after ≈: the same amount, converted by molar mass. Read-outs that look alike come from different tables or passages of the source.

Key:
Format in all cases: cell-based
[1] = test system: Endothelial cell line HUVEC; experiment: Inhibitory activity on cells, CellTiter-Glo viability, HUVEC; details: Homo sapiens, 72 hours treatment
Method: (§1) HUVEC (purchased from Allcells Biological Technology (Shanghai) Co., Ltd.); UM-UC-3 (ATCC); LNCaP (ATCC); RM-1 (purchased from Nanjing Cobioer Biosciences Co., Ltd.) (1) On the first day, the cells were seeded in a 96-well plate, and the previous medium was poured off. 5 mL of DPBS was added to wash the cells, and then removed by a pipette and discarded. Then, 1 mL of trypsin (0.25%) was added, and the plate was placed in a cell culture incubator at 37 °C, 5% CO2 for digestion, and taken out after about 2 to 5 minutes. New corresponding medium was added, and pipetted to resuspend the cells evenly, and the cells were then counted with an automated cell counter. Regarding HUVEC, the medium used was endothelial cell complete medium; regarding UM-UC-3, the medium used was 89 v % EMEM+10 v % fetal bovine serum+1 v % penicillin-streptomycin double anti-body; regarding LNcaP, the medium used was 89 v % RPM11640+10 v % fetal bovine serum+1 v % penicillin-streptomycin double anti-body; and regarding RM1, the medium used was 89 v % DMEM+10 v % fetal bovine serum+1 v % penicillin-streptomycin double anti-body. (2) HUVEC cells were seeded in columns 1 to 11 of a 96-well plate (Corning, Cat. No. 3610) at a density of 2000 cells per well in 100 μL of medium, and the medium free of cell was added to the wells of column 12. The other three types of cells were also seeded, wherein UM-UC-3 and RM-1 cells were seeded at a density of 3000 cells per well, and LNCap cells were seeded at a density of 5000 cells per well. Then, the plate was placed in an incubator at 37° C., 5% CO2 for 24 hours. (3) On the second day, the compounds of the present invention and the reference drug nitroxoline (obtained according to the preparation method disclosed in the prior art) were diluted in gradient (2.5 folds, started at 100 μmol) to obtain 8 dose points (there were a total of 8 columns of wells; the first column of wells had the highest concentration, the concentration decreased in turn, and the last column of wells had the lowest concentration). 10 μL of the compound diluted in gradient was added to the 100 μL of cells in column 1 to column 10 with an 8-channel pipette. 10 μL of the corresponding medium containing 0.33 v % DMSO was added to column 11 and column 12. The plate was incubated in an incubator at 37° C., 5% CO2 for 72 hours (note: column 11 was used as MAX well with cells and no compounds; and column 12 was used as MIN well with no cells and no compounds). (4) After treating with the compounds of the present invention for 72 hours, the cell viability detection reagents in the above CellTiter-Glo® assay kit were added to the 96-well plate at 50 μL per well according to the instructions. The plate was shaken on a shaker in the dark for 5 to 10 minutes, and then the cell activity was determined by a multifunctional microplate reader. Finally, the growth inhibition of the compounds of the present invention on the cells was plotted by XLFIT 5.3 software, and the IC50 values of the compounds of the present invention were calculated.

[2] = test system: Bladder cancer cell line UM-UC-3; experiment: Inhibitory activity on cancer cells, CellTiter-Glo viability, UM-UC-3; details: Homo sapiens, UMUC3, 72 hours treatment
Method: as §1

[3] = test system: Prostate cancer cell line LNcaP; experiment: Inhibitory activity on cancer cells, CellTiter-Glo viability, LNcaP; details: Homo sapiens, 72 hours treatment
Method: as §1

[4] = test system: Escherichia coli (carbapenem-resistant clinical isolate; ATCC25922); experiment: MIC by micro broth dilution (CLSI), Escherichia coli; details: Escherichia coli
Text: (§2) The test bacteria were one strain of clinically isolated carbapenem-resistant Escherichia coli, two strains of carbapenem-resistant Acinetobacter baumannii, two strains of methicillin-resistant Staphylococcus aureus, two strains of sensitive Staphylococcus aureus, and 7 strains of Klebsiella pneumoniae. Duplicate strains isolated from the same patient were eliminated. There were also […] quality control strains Escherichia coli ATCC25922, Acinetobacter baumannii ATCC19606, Staphylococcus aureus ATCC29213, Klebsiella pneumoniae ATCC BAA-1705, ATCC 43816, ATCC BAA-2472, ATCC-BAA-1898, ATCC-BAA-1899, NCTC 13440 and ATCC-BAA-2470. There were 24 strains in total.
(§3) According to the recommendations of relevant documents of the American Clinical and Laboratory Standards Institute (CLSI), the micro broth dilution method was used to determine the MIC of the compounds of the present invention against clinically isolated strains. • 3.1 Formulation of antibacterial drug: All the compounds of the present invention were dissolved in DMSO. The drug concentration range was 128 mg/L to 0.06 mg/L. • 3.2 Culture medium: The drug susceptibility test used cation adjusted Mueller-Hinton broth (CAMHB). • 3.3 Amount of inoculum: The test bacteria cultured overnight were adjusted to 0.5 McFarland turbidity by the direct colony suspension method, and diluted 100 folds, the final inoculum amount was 10^5 CFU/mL. • 3.4 Culture conditions: The test bacteria were cultured at 35±2° C. for 20 hours in air.
(§4) The drug susceptibility test results were interpretated by reference to CLSI 2019 M100 29th edition criteria.
(§5) The quality control strains of the drug susceptibility test were Escherichia coli ATCC 25922, Acinetobacter baumannii ATCC 19606, Staphylococcus aureus ATCC 29213, Klebsiella pneumoniae ATCC BAA-1705, ATCC 43816, ATCC BAA-2472, ATCC-BAA-1898, ATCC-BAA-1899, NCTC 13440 and ATCC-BAA-2470.
(§6) The results of drug susceptibility test were statistically analyzed by WHONET software (version 5.6).

[5] = test system: Acinetobacter baumannii (carbapenem-resistant clinical isolates; ATCC19606); experiment: MIC by micro broth dilution (CLSI), Acinetobacter baumannii; details: Acinetobacter baumannii; for MIC50 / MIC90: ATCC19606
Text: as §2, §3, §4, §5, §6

[6] = test system: Staphylococcus aureus (methicillin-resistant and sensitive clinical isolates; ATCC29213); experiment: MIC by micro broth dilution (CLSI), Staphylococcus aureus
Text: as §2, §3, §4, §5, §6

[7] = ATCC25922, Clinical strain, read-out: MIC50
[8] = ATCC25922, Clinical strain, read-out: MIC90
[9] = Standard strain ATCC25922, read-out: MIC
[10] = Clinical strain, read-out: MIC50
[11] = Clinical strain, read-out: MIC90
[12] = Standard strain ATCC19606, read-out: MIC
[13] = Standard strain ATCC29213, read-out: MIC
[14] = clinical strains, micro broth dilution, CAMHB, 35±2° C., 20 hours, read-out: MIC50 Escherichia coli Clinical strain
[15] = clinical strains, micro broth dilution, CAMHB, 35±2° C., 20 hours, read-out: MIC90 Escherichia coli Clinical strain
[16] = standard strain ATCC25922, micro broth dilution, CAMHB, 35±2° C., 20 hours, read-out: MIC Escherichia coli Standard strain ATCC25922
[17] = clinical strains, micro broth dilution, CAMHB, 35±2° C., 20 hours, read-out: MIC50 Acinetobacter baumannii Clinical strain
[18] = clinical strains, micro broth dilution, CAMHB, 35±2° C., 20 hours, read-out: MIC90 Acinetobacter baumannii Clinical strain
[19] = standard strain ATCC19606, micro broth dilution, CAMHB, 35±2° C., 20 hours, read-out: MIC Acinetobacter baumannii Standard strain ATCC19606
[20] = clinical strains, micro broth dilution, CAMHB, 35±2° C., 20 hours, read-out: MIC50 Staphylococcus aureus Clinical strain
[21] = clinical strains, micro broth dilution, CAMHB, 35±2° C., 20 hours, read-out: MIC90 Staphylococcus aureus Clinical strain
[22] = standard strain ATCC29213, micro broth dilution, CAMHB, 35±2° C., 20 hours, read-out: MIC Staphylococcus aureus Standard strain ATCC29213

Row | SMILES | IC50 [1] [µM] | IC50 [2] [µM] | IC50 [3] [µM] | MIC50 [4, 7] [µg/mL] | MIC90 [4, 8] [µg/mL] | MIC [4, 9] [µg/mL] | MIC50 [5, 10] [µg/mL] | MIC90 [5, 11] [µg/mL] | MIC [5, 12] [µg/mL] | MIC50 [6, 10] [µg/mL] | MIC90 [6, 11] [µg/mL] | MIC [6, 13] [µg/mL] | further results
1 | O=[N+]([O-])c1ccc2c(-n3ccnc3)ccnc2c1O [Example 15, 4-(1H-Imidazol-1-yl)-7-nitroquinolin-8-ol] | 32.3 | 36.2 | 35.2 | 128 (≈ 500 µM) | 128 (≈ 500 µM) | > 128 | > 128 | > 128 | > 128 | 64 (≈ 250 µM) | 128 (≈ 500 µM) | 128 (≈ 500 µM) | –
2 | O=[N+]([O-])c1ccc2c(N3CCOCC3)ccnc2c1O [Example 14, 4-Morpholino-7-nitroquinolin-8-ol] | 10.9 | 6.1 | 8.7 | 128 (≈ 465 µM) | 128 (≈ 465 µM) | > 128 | 128 (≈ 465 µM) | > 128 | > 128 | 128 (≈ 465 µM) | 128 (≈ 465 µM) | 128 (≈ 465 µM) | –
3 | O=[N+]([O-])c1ccc2c(N3CCCC3)ccnc2c1O [Example 13, 7-Nitro-4-(pyrrolidin-1-yl)quinolin-8-ol] | > 50 | 38 | 35.4 | > 128 | > 128 | > 128 | > 128 | > 128 | > 128 | > 128 | > 128 | > 128 | –
4 | O=[N+]([O-])c1ccc2c(NC3COC3)ccnc2c1O [Example 19, 7-Nitro-4-(3-oxetanylamino)quinolin-8-ol] | > 100 | > 100 | > 100 | – | – | – | – | – | – | – | – | – | –
5 | Cc1cnc2c(O)c([N+](=O)[O-])cc(C3CC3)c2c1 [Example 84, 5-cyclopropyl-3-methyl-7-nitroquinolin-8-ol] | – | – | – | > 128 | > 128 | 64 (≈ 262 µM) | 64 (≈ 262 µM) | 128 (≈ 524 µM) | 64 (≈ 262 µM) | 4 (≈ 16.4 µM) | 64 (≈ 262 µM) | 4 (≈ 16.4 µM) | –
6 | Cc1cnc2c(O)c([N+](=O)[O-])cc(F)c2c1 [Example 86, 5-fluoro-3-methyl-7-nitroquinolin-8-ol] | – | – | – | 32 (≈ 144 µM) | 32 (≈ 144 µM) | 16 (≈ 72 µM) | 16 (≈ 72 µM) | 32 (≈ 144 µM) | 16 (≈ 72 µM) | 8 (≈ 36 µM) | > 128 | 8 (≈ 36 µM) | –
7 | [2H]c1ccnc2c(O)c([N+](=O)[O-])cc(Cl)c12 [Example 120, 5-chloro-7-nitroquinolin-4-d-8-ol] | – | – | – | 32 (≈ 142 µM) | 32 (≈ 142 µM) | 16 (≈ 70.9 µM) | 8 (≈ 35.5 µM) | 16 (≈ 70.9 µM) | 8 (≈ 35.5 µM) | 4 (≈ 17.7 µM) | 16 (≈ 70.9 µM) | 8 (≈ 35.5 µM) | –
8 | [2H]c1cc2cccnc2c(O)c1[N+](=O)[O-] [Example 117, 7-nitroquinolin-6-d-8-ol] | – | – | – | 8 (≈ 41.8 µM) | 16 (≈ 83.7 µM) | 8 (≈ 41.8 µM) | 4 (≈ 20.9 µM) | 4 (≈ 20.9 µM) | 4 (≈ 20.9 µM) | 4 (≈ 20.9 µM) | 8 (≈ 41.8 µM) | 4 (≈ 20.9 µM) | –
9 | O=[N+]([O-])c1cc(CN2CCCC2)c2cccnc2c1O [Example 93, 7-nitro-5-(pyrrolidin-1-ylmethyl)quinolin-8-ol acetate] | – | – | – | > 128 | > 128 | > 128 | > 128 | > 128 | > 128 | > 128 | > 128 | > 128 | –
10 | O=[N+]([O-])c1c(F)c(F)c2cccnc2c1O [Example 125, 5,6-difluoro-7-nitroquinolin-8-ol] | – | – | – | – | – | – | – | – | – | – | – | – | MIC50 [4, 14]: 16 µg/mL (≈ 70.8 µM); MIC90 [4, 15]: 16 µg/mL (≈ 70.8 µM); MIC [4, 16]: 8 µg/mL (≈ 35.4 µM); MIC50 [5, 17]: 8 µg/mL (≈ 35.4 µM); MIC90 [5, 18]: 16 µg/mL (≈ 70.8 µM); MIC [5, 19]: 8 µg/mL (≈ 35.4 µM); MIC50 [6, 20]: 8 µg/mL (≈ 35.4 µM); MIC90 [6, 21]: 8 µg/mL (≈ 35.4 µM); MIC [6, 22]: 8 µg/mL (≈ 35.4 µM)
11 | O=[N+]([O-])c1c(Cl)c(F)c2cccnc2c1O [Example 123, 6-chloro-5-fluoro-7-nitroquinolin-8-ol] | – | – | – | – | – | – | – | – | – | – | – | – | MIC50 [4, 14]: 16 µg/mL (≈ 66 µM); MIC90 [4, 15]: 32 µg/mL (≈ 132 µM); MIC [4, 16]: 8 µg/mL (≈ 33 µM); MIC50 [5, 17]: 4 µg/mL (≈ 16.5 µM); MIC90 [5, 18]: 8 µg/mL (≈ 33 µM); MIC [5, 19]: 4 µg/mL (≈ 16.5 µM); MIC50 [6, 20]: 2 µg/mL (≈ 8.24 µM); MIC90 [6, 21]: 4 µg/mL (≈ 16.5 µM); MIC [6, 22]: 4 µg/mL (≈ 16.5 µM)
12 | O=[N+]([O-])c1ccc2c(C(F)F)ccnc2c1O [Example 81, 4-(difluoromethyl)-7-nitroquinolin-8-ol] | – | – | – | 32 (≈ 133 µM) | 128 (≈ 533 µM) | 16 (≈ 66.6 µM) | 16 (≈ 66.6 µM) | 32 (≈ 133 µM) | 16 (≈ 66.6 µM) | 8 (≈ 33.3 µM) | 16 (≈ 66.6 µM) | 16 (≈ 66.6 µM) | –
13 | O=[N+]([O-])c1ccc2c(CN3CCOCC3)ccnc2c1O [Example 89, 4-(morpholinomethyl)-7-nitroquinolin-8-ol] | – | – | – | > 128 | > 128 | > 128 | 128 (≈ 442 µM) | 128 (≈ 442 µM) | 128 (≈ 442 µM) | 64 (≈ 221 µM) | 64 (≈ 221 µM) | 64 (≈ 221 µM) | –
